Experimental data published in ChEMBL document CHEMBL4814007, “Structure-based discovery of SIAIS001 as an oral bioavailability ALK degrader constructed from Alectinib” (Eur J Med Chem, 2021).
Activity calls are given as the source filed them. No cut-off for these calls is given here.

Columns and labels:
[1] = Toxicity in rat at 10 mg/kg, po assessed as adverse effect; type: organism-based; conditions: in vivo
[2] = biological target: T1, ALK tyrosine kinase receptor (Homo sapiens, UniProt Q9UM73); assay: Inhibition of ALK in human SR cells assessed as reduction in STAT3 phosphorylation at 50 nM; type: cell-based
Target sequence in this assay (Q9UM73 19-1620 limits assumed): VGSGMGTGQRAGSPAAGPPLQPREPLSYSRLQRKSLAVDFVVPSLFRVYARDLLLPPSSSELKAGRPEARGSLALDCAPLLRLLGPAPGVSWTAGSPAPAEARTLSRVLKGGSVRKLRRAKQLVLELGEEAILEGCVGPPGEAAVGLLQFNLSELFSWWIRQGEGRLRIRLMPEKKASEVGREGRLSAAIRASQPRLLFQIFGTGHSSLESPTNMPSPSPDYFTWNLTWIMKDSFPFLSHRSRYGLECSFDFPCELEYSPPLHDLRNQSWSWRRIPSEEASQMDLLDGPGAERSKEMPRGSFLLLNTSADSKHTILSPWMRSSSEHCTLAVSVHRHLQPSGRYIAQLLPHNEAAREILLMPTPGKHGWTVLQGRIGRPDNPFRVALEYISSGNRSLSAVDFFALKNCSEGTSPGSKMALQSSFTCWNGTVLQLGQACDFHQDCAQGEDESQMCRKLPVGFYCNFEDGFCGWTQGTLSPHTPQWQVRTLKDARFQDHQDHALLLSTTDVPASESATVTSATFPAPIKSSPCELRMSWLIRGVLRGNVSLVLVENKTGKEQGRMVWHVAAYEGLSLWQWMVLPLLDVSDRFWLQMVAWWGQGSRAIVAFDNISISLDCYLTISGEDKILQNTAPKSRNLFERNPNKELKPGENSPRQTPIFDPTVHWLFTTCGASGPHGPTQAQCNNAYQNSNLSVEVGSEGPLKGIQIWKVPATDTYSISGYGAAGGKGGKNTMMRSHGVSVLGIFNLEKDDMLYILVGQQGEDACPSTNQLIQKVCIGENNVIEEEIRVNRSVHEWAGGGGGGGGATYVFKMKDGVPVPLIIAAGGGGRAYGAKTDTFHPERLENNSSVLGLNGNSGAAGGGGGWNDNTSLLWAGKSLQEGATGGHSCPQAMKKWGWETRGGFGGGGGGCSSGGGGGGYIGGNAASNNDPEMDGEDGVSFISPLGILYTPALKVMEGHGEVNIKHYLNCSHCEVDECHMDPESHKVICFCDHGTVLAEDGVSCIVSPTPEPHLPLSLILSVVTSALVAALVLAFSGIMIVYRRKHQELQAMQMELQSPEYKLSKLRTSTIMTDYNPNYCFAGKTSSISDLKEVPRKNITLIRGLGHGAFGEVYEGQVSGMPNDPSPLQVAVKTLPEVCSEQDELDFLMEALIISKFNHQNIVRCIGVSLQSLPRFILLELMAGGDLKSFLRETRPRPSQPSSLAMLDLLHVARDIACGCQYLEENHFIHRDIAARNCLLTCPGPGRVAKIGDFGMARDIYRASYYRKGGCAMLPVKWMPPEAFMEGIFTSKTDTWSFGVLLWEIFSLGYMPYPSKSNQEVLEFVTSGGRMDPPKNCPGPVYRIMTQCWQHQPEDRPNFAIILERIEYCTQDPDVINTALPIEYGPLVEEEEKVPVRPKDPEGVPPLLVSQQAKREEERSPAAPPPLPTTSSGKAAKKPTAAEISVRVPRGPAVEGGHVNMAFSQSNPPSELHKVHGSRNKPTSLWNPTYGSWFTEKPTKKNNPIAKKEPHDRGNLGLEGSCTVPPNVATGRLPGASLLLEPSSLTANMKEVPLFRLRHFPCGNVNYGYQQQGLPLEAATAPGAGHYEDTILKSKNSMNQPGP

[3] = biological target: T2, Protein cereblon/ALK tyrosine kinase receptor (Homo sapiens, UniProt Q9UM73+Q96SW2); assay: Protac activity at CRBN/ALK in human SR cells assessed as protein abundance at 0.05 nM by Western blot analysis (reference value: 1); type: cell-based
Target sequence in this assay (Q96SW2 whole entry partner): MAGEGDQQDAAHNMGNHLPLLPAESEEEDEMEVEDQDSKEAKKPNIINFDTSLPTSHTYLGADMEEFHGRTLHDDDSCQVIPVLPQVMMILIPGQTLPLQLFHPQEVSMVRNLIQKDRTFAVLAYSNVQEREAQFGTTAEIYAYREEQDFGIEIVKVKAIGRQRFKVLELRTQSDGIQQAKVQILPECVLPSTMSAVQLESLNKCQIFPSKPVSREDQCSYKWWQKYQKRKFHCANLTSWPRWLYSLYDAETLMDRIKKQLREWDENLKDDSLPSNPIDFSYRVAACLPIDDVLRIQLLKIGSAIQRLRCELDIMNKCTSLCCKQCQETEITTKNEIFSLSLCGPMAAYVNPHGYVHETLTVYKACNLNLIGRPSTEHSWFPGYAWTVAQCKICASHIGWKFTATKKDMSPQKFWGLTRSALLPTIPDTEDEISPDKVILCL
Target sequence in this assay (Q9UM73 19-1620 limits assumed): as the sequence (Q9UM73 19-1620 limits assumed) above

SR [4] = assay: Induction of cell cycle arrest in human SR cells assessed as increase in accumulation at S phase at 100 nM incubated for 24 hrs; type: functional, cell-based
[5] = biological target: T2, Protein cereblon/ALK tyrosine kinase receptor; assay: Protac activity at CRBN/ALK in human SR cells assessed as protein abundance at 500 nM by Western blot analysis (reference value: 1); type: cell-based
Target sequence in this assay (Q96SW2 whole entry partner): as the sequence (Q96SW2 whole entry partner) above
Target sequence in this assay (Q9UM73 19-1620 limits assumed): as the sequence (Q9UM73 19-1620 limits assumed) above

[6] = Oral bioavailability in rat at 10 mg/kg; type: ADME, organism-based; conditions: in vivo
[7] = Plasma concentration in rat at 10 mg/kg, po measured after 4 hrs; type: ADME, organism-based
[8] = biological target: T2, Protein cereblon/ALK tyrosine kinase receptor; assay: Protac activity at CRBN/ALK in human SR cells assessed as induction of ALK degradation by Western blot analysis; type: cell-based
Target sequence in this assay (Q9UM73 whole entry): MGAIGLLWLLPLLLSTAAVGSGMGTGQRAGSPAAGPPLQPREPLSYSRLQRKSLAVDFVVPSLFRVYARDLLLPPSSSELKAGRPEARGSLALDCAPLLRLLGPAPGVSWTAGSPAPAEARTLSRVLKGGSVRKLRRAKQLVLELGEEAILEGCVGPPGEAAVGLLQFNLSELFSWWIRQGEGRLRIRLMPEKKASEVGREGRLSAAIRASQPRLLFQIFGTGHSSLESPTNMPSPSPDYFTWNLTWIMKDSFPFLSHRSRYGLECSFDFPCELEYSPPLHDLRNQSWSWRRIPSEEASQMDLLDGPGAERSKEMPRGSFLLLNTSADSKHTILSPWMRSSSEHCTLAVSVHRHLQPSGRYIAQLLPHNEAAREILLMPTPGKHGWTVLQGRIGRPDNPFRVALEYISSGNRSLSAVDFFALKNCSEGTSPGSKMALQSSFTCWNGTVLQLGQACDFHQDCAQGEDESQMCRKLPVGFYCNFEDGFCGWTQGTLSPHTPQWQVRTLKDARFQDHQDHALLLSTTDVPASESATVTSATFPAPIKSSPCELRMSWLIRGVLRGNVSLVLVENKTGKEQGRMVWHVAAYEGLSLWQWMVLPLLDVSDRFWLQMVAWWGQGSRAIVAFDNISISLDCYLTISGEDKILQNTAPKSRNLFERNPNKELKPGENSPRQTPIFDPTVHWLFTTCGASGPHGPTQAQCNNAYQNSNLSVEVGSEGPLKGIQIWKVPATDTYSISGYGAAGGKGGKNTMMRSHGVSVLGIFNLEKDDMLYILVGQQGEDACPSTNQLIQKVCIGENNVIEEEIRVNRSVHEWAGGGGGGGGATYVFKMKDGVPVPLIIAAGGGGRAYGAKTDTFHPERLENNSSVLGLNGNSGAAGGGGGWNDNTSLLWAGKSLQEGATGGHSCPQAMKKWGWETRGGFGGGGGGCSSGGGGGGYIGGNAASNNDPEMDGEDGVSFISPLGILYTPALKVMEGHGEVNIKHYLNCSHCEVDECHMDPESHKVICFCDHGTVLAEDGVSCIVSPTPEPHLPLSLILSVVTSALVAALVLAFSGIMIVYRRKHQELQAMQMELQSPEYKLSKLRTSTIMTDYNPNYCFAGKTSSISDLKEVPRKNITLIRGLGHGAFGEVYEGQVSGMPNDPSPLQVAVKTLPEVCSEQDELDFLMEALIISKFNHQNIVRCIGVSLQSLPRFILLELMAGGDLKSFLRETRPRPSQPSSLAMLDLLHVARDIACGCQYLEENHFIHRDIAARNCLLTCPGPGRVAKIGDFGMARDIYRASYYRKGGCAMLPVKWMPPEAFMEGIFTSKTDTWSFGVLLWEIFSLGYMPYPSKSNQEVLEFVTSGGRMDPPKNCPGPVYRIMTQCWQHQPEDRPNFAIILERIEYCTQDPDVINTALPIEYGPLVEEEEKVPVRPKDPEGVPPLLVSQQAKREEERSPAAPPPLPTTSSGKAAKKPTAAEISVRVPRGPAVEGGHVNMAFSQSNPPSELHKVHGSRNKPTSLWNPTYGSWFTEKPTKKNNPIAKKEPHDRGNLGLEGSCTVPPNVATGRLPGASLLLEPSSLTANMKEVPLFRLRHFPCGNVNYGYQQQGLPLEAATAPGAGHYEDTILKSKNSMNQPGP
Target sequence in this assay (Q96SW2 whole entry): as the sequence (Q96SW2 whole entry partner) above

[9] = biological target: T2, Protein cereblon/ALK tyrosine kinase receptor; assay: Protac activity at CRBN/ALK in human SR cells assessed as protein abundance at 0.5 nM by Western blot analysis (reference value: 1); type: cell-based
Target sequence in this assay (Q96SW2 whole entry partner): as above
Target sequence in this assay (Q9UM73 19-1620 limits assumed): as the sequence (Q9UM73 19-1620 limits assumed) above

[10] = biological target: T2, Protein cereblon/ALK tyrosine kinase receptor; assay: Protac activity at CRBN/ALK in human SR cells assessed as increase in ALK degradation at 50 nM in presence of MG132 by Western blot analysis; type: cell-based
Target sequence in this assay (Q96SW2 whole entry partner): as the sequence (Q96SW2 whole entry partner) above
Target sequence in this assay (Q9UM73 19-1620 limits assumed): as the sequence (Q9UM73 19-1620 limits assumed) above

SR [11] = assay: Antiproliferative activity against ALK positive human SR cells; type: functional, cell-based
[12] = biological target: T2, Protein cereblon/ALK tyrosine kinase receptor; assay: Protac activity at CRBN/ALK in human SR cells assessed as induction of ALK degradation at 0.05 to 500 nM by Western blot analysis relative to control; type: cell-based; conditions: dose 0.05-500 nM
Target sequence in this assay (Q96SW2 whole entry partner): as the sequence (Q96SW2 whole entry partner) above
Target sequence in this assay (Q9UM73 19-1620 limits assumed): as the sequence (Q9UM73 19-1620 limits assumed) above

SR [13] = assay: Potency index, ratio of ceritinib IC50 to test compound IC50 for antiproliferative activity against ALK positive human SR cells; type: functional
[14] = biological target: T1, ALK tyrosine kinase receptor; assay: Inhibition of ALK phosphorylation in human SR cells at 0.5 nM; type: cell-based
Target sequence in this assay (Q9UM73 19-1620 limits assumed): as above

[15] = Cmax in rat at 2 mg/kg, ip; type: ADME, organism-based; design: route intraperitoneal, dose 2 mg/kg; conditions: in vivo
SR [16] = assay: Induction of cell cycle arrest in human SR cells assessed as increase in accumulation at G1/S phase at 100 nM incubated for 24 hrs; type: functional, cell-based
[17] = biological target: T2, Protein cereblon/ALK tyrosine kinase receptor; assay: Protac activity at CRBN/ALK in human SR cells assessed as increase in ALK degradation at 500 nM by Western blot analysis; type: cell-based
Target sequence in this assay (Q96SW2 whole entry partner): as the sequence (Q96SW2 whole entry partner) above
Target sequence in this assay (Q9UM73 19-1620 limits assumed): as the sequence (Q9UM73 19-1620 limits assumed) above

[18] = biological target: T2, Protein cereblon/ALK tyrosine kinase receptor; assay: Protac activity at CRBN/ALK in human SR cells assessed as protein abundance at 50 nM by Western blot analysis (reference value: 1); type: cell-based
[19] = biological target: T2, Protein cereblon/ALK tyrosine kinase receptor; assay: Protac activity at CRBN/ALK in human SR cells assessed as increase in ALK degradation at 50 nM in presence of MLN4924/MG132 by Western blot analysis; type: cell-based
[20] = biological target: T2, Protein cereblon/ALK tyrosine kinase receptor; assay: Protac activity at CRBN/ALK in human SR cells assessed as protein abundance at 5 nM by Western blot analysis (reference value: 1); type: cell-based
[21] = Stability in liver microsomes (unknown origin); type: ADME, Microsome
[22] = biological target: T1, ALK tyrosine kinase receptor; assay: Inhibition of ALK (unknown origin)
Target sequence in this assay (Q9UM73 whole entry): as the sequence (Q9UM73 whole entry) above

With `CCc1cc2c(cc1N1CCC(N3CCN(CCCC#Cc4cccc5c4CN(C4CCC(=O)NC4=O)C5=O)CC3)CC1)C(C)(C)c1[nH]c3cc(C#N)ccc3c1C2=O` (configuration not stated) the Activity [1] was “Non-Toxic”, the inhibition [2] was “Active” and the Activity [3] was 1.03. For the same compound, the Activity (SR [4]) was “inactive”, the Activity [5] was 0.37 and the bioavailability [6] was 16%. The concentration at 4 h [7] was 100 ng/mL, the DC50 [8] was 3900 nM and the Activity [9] was 0.92. The Activity [10] was “inactive”, the IC50 (SR [11]) was 0.9 nM and the Emax [12] was 70.3%. The Ratio (SR [13]) was 5, the inhibition [14] was “Active” and the Cmax [15] was 83.5 ng/mL. The Activity (SR [16]) was “Active”, the Activity [17] was “Active” and the Activity [18] was 0.37. The Activity [19] was “inactive”, the Activity [20] was 0.56 and the Stabilty [21] was “Stable”. The IC50 [22] was 3.3 nM.
